According to patent US8927715B2, “Inhibitors of 11β-hydroxysteroid dehydrogenase type 1” (Vitae Pharmaceuticals, Inc., priority 2006, dated 2015):

Target: human 11β-HSD1 (Homo sapiens, UniProt P28845)
Test: Inhibition of a microsomal preparation of 11β-HSD1, SPA (Biological Test Example 2)
Type: biochemical
Design: expressed in transfected cells; host or cells: CHO cells (microsomes)
Conditions: read-out: Biological Test Example 2 (IC50 class)
Procedure: All reactions are carried out at room temperature in 96 well clear flexible PET Microbeta plates (PerkinElmer). […] After a 10 minute pre-incubation, 50 μL of enzyme solution containing microsomes isolated from CHO cells overexpressing human 11β-HSD1 (10-20 μg/ml of total protein) is added, and the plates are then incubated for 90 minutes at room temperature. The reaction is stopped by adding 50 μl of the SPA beads suspension containing […] 18β-glycyrrhetinic acid, 5 mg/ml protein A coated YSi SPA beads (GE Healthcare) and 3.3 μg/ml of anti-cortisol antibody (East Coast Biologics) in Superblock buffer (Bio-Rad). The plates are then shaken for 120 minutes at room temperature, and the SPA signal corresponding to [^3H]cortisol is measured on a Microbeta plate reader.

human 11β-HSD1, sequence (P28845 whole entry): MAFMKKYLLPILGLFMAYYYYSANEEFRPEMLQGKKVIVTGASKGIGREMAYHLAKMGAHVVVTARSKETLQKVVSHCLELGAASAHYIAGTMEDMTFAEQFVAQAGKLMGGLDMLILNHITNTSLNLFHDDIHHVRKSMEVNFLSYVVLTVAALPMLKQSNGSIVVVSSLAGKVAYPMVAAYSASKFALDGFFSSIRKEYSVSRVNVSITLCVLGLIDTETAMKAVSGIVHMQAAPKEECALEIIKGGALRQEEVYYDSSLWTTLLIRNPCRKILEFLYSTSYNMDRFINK

Compound | IC50
O=C(O)CC1CC2(CCN(C(=O)NC34CC5CC(CC(C5)C3)C4)CC2)c2c(Br)cccc21 (racemic) [Example 62, (±)-2-(7-Bromo-1′-((1-adamantyl)carbamoyl)-2,3-dihydrospiro[indene-1,4′-piperidine]-3-yl)acetic acid] | < 50 nM
O=C(O)CC1CC2(CCN(C(=O)NC3C4CC5(O)CC3CC(O)(C4)C5)CC2)c2c(Br)cccc21 (racemic) [Example 76, (±)-2-(7-Bromo-1′-(1,7-dihydroxy-4-adamantylcarbamoyl)-2,3-dihydrospiro[indene-1,4′-piperidine]-3-yl)acetic acid] | 50 to 1000 nM
CN1Cc2ccccc2C12CCN(C(=O)NC1C3CC4CC(C3)CC1C4)CC2 (stereo not drawn) [Example 86, N-(2-Adamantyl)-2-methylspiro[isoindoline-1,4′-piperidine]-1′-carboxamide] | < 50 nM
O=C(O)CC1CCC2(CC1)CCN(C(=O)NC1C3CC4CC(C3)CC1C4)CC2 (stereo not drawn) [Example 82, 2-(3-((2-Adamantyl)carbamoyl)-3-azaspiro[5.5]undecan-9-yl)acetic acid] | 50 to 1000 nM
O=C(NC1C2CC3CC(C2)CC1C3)N1CCC2(CCc3ccccc32)CC1 (stereo not drawn) [Example 28, N-(2-Adamantyl)-2,3-dihydrospiro[indene-1,4′-piperidine]-1′-carboxamide] | < 50 nM
CCOC(=O)N1Cc2ccccc2C2(CCN(C(=O)NC3C4CC5CC(C4)CC3C5)CC2)C1 (stereo not drawn) [Example 36, Ethyl 1′-((2-adamantyl)carbamoyl)-1H-spiro[isoquinoline-4,4′-piperidine]-2(3H)-carboxylate] | < 50 nM
CC1(C)NC2(CCN(C(=O)NC3C4CC5CC(C4)CC3C5)CC2)c2c(Cl)cccc21 (stereo not drawn) [Example 104, 7-Chloro-N-(2-adamantyl)-3,3-dimethylspiro[isoindoline-1,4′-piperidine]-1′-carboxamide] | < 50 nM
O=C(CC1CC2(CCN(C(=O)NC3C4CC5CC(C4)CC3C5)CC2)c2c(Br)cccc21)N1CCOCC1 (stereo not drawn) [Example 111, 7-Bromo-N-(2-adamantyl)-3-(2-morpholino-2-oxoethyl)-2,3-dihydrospiro[indene-1,4′-piperidine]-1′-carboxamide] | < 50 nM
CC(C)(C)OC(=O)N1CC2(CCN(C(=O)OC3C4CC5CC3CC(C(N)=O)(C5)C4)CC2)c2ccccc21 (stereo not drawn) [Example 85, 1-Tert-butyl 1′-(trans-1-carbamoyl-4-adamantyl)spiro[indoline-3,4′-piperidine]-1,1′-dicarboxylate] | < 50 nM
O=C(O)CC1CC2(CCN(C(=O)NC3C4CC5CC(C4)CC3C5)CC2)c2c(Cl)cccc21 (racemic) [Example 52, (±)-2-(1′-((2-Adamantyl)carbamoyl)-7-chloro-2,3-dihydrospiro[indene-1,4′-piperidine]-3-yl)acetic acid] | < 50 nM
CN1Cc2cccc(Cl)c2C12CCN(C(=O)NC1C3CC4CC(C3)CC1C4)CC2 (stereo not drawn) [Example 88, 7-Chloro-N-(2-adamantyl)-2-methylspiro[isoindoline-1,4′-piperidine]-1′-carboxamide] | < 50 nM
CC(C)(C(=O)O)C1CC2(CCN(C(=O)NC3C4CC5CC(C4)CC3C5)CC2)c2c(Br)cccc21 (racemic) [Example 68, (±)-2-(7-Bromo-1′-((2-adamantyl)carbamoyl)-2,3-dihydrospiro[indene-1,4′-piperidine]-3-yl-2-methylpropanoic acid] | < 50 nM
N#Cc1ccc(N2Cc3ccccc3C3(CCN(C(=O)OC4C5CC6CC(C5)CC4C6)CC3)C2)nc1 (stereo not drawn) [Example 41, 2-Adamantyl 2-(5-cyanopyridin-2-yl)-2,3-dihydro-1H-spiro[isoquinoline-4,4′-piperidine]-1′-carboxylate] | < 50 nM
CCOC(=O)CC1CC2(CCN(C(=O)NC3C4CC5CC(C4)CC3C5)CC2)c2c(Cl)cccc21 (racemic) [Example 51, (±)-Ethyl 2-(1′-((2-adamantyl)carbamoyl)-7-chloro-2,3-dihydrospiro[indene-1,4′-piperidine]-3-yl)acetate] | < 50 nM
O=C(NC1C2CC3CC(C2)CC1C3)N1CCC2(CC1)NC(=S)c1ccccc12 (stereo not drawn) [87, Step 1 Product] | < 50 nM
O=C(O)CC1CC2(CCN(C(=O)OC3C4CC5CC3CC(C(=O)NCc3ccccc3)(C5)C4)CC2)c2ccccc21 (stereo not drawn) [Example 89, 2-(1′-((1-(Benzylcarbamoyl)-4-adamantyloxy)carbonyl)-2,3-dihydrospiro[indene-1,4′-piperidine]-3-yl)acetic acid] | 50 to 1000 nM
O=C(CC1CC2(CCN(C(=O)NC3C4CC5CC(C4)CC3C5)CC2)c2c(Br)cccc21)NCCN1CCNCC1 (stereo not drawn) [Example 119, 7-Bromo-N-(2-adamantyl)-3-(2-oxo-2-(2-(piperazin-1-yl)ethylamino)ethyl)-2,3-dihydrospiro[indene-1,4′-piperidine]-1′-carboxamide] | < 50 nM
CC(C)(C)OC(=O)N1Cc2ccccc2C2(CCN(C(=O)OC3C4CC5CC(C4)CC3C5)CC2)C1 (stereo not drawn) [Example 37, 2-Tert-butyl 1′-(2-adamantyl) 1H-spiro[isoquinoline-4,4′-piperidine]-1′,2(3H)-dicarboxylate] | < 50 nM

Compound | IC50
O=C(CC1CC2(CCN(C(=O)NC3C4CC5CC(C4)CC3C5)CC2)c2c(Br)cccc21)N1CCNCC1 (stereo not drawn) [Example 110, 7-Bromo-N-(2-adamantyl)-3-(2-oxo-2-(piperazin-1-yl)ethyl)-2,3-dihydrospiro[indene-1,4′-piperidine]-1′-carboxamide] | < 50 nM
O=C(O)CC1CCC2(CC1)CCN(C(=O)OC1C3CC4CC(C3)CC1C4)CC2 (stereo not drawn) [Example 80, 2-(3-((2-Adamantyl)oxycarbonyl)-3-azaspiro[5.5]undecan-9-yl)acetic acid] | 50 to 1000 nM
NC(=O)CC1CC2(CCN(C(=O)NC3C4CC5CC(C4)CC3C5)CC2)c2c(Br)cccc21 (racemic) [Example 131, (±)-3-(2-amino-2-oxoethyl)-7-bromo-N-(2-adamantyl)-2,3-dihydrospiro[indene-1,4′-piperidine]-1′-carboxamide] | < 50 nM
CN1C(=S)c2ccccc2C12CCN(C(=O)NC1C3CC4CC(C3)CC1C4)CC2 (stereo not drawn) [103, Step 1 Product] | < 50 nM
O=C(O)CC1CC2(CCN(C(=O)NC3C4CC5CC(C4)CC3C5)CC2)c2cc(Cl)ccc21 (racemic) [Example 54, (±)-2-(1′-((2-Adamantyl)carbamoyl)-6-chloro-2,3-dihydrospiro[indene-1,4′-piperidin]-3-yl)acetic acid] | < 50 nM
CS(=O)(=O)N1Cc2ccccc2C2(CCN(C(=O)NC3C4CC5CC(C4)CC3C5)CC2)C1 (stereo not drawn) [Example 34, N-(2-Adamantyl)-2-(methylsulfonyl)-2,3-dihydro-1H-spiro[isoquinoline-4,4′-piperidine]-1′-carboxamide] | < 50 nM
O=C(O)CCCC(=O)N1CC2(CCN(C(=O)NC3C4CC5CC(C4)CC3C5)CC2)c2ccccc21 (stereo not drawn) [Example 93, 5-(1′-(2-Adamantylcarbamoyl)spiro[indoline-3,4′-piperidine]-1-yl)-5-oxopentanoic acid] | < 50 nM
O=C(CC1CC2(CCN(C(=O)NC3C4CC5CC(C4)CC3C5)CC2)c2c(Br)cccc21)NCCN1CCOCC1 (stereo not drawn) [Example 120, 7-Bromo-N-(2-adamantyl)-3-(2-(2-morpholinoethylamino)-2-oxoethyl)-2,3-dihydrospiro[indene-1,4′-piperidine]-1′-carboxamide] | < 50 nM
O=C(NC1C2CC3CC(C2)CC1C3)N1CCCC2(Cc3ccccc3C2=O)C1 (stereo not drawn) [27, Step 1 Product] | < 50 nM
CN(C)CCN(C)C(=O)CC1CC2(CCN(C(=O)NC3C4CC5CC(C4)CC3C5)CC2)c2c(Br)cccc21 (stereo not drawn) [Example 116] | < 50 nM
CCOC(=O)CC1CC2(CCN(C(=O)NC34CC5CC(CC(C5)C3)C4)CC2)c2c(Br)cccc21 (racemic) [Example 61, (±)-Ethyl 2-(7-bromo-1′-((1-adamantyl)carbamoyl)-2,3-dihydrospiro[indene-1,4′-piperidine]-3-yl)acetate] | < 50 nM
O=C(O)CC1CC2(CCN(C(=O)NC3C4CC5CC(C4)CC3C5)CC2)c2c(Br)cccc21 (racemic) [Example 43, (±)-2-(7-Bromo-1′-((2-adamantyl)carbamoyl)-2,3-dihydrospiro[indene-1,4′-piperidine]-3-yl)acetic acid] | < 50 nM
CCOC(=O)CCN1Cc2ccccc2C2(CCN(C(=O)OC3C4CC5CC(C4)CC3C5)CC2)C1 (stereo not drawn) [Example 32] | < 50 nM
CNC(=O)N1Cc2ccccc2C2(CCN(C(=O)NC3C4CC5CC(C4)CC3C5)CC2)C1 (stereo not drawn) [Example 35, N1′-(2-Adamantyl)-N2-methyl-1H-spiro[isoquinoline-4,4′-piperidine]-1′,2(3H)-dicarboxamide] | < 50 nM
O=C(O)CCC(=O)N1Cc2ccccc2C2(CCN(C(=O)NC3C4CC5CC(C4)CC3C5)CC2)C1 (stereo not drawn) [Example 92, 4-(1′-(2-Adamantylcarbamoyl)-1H-spiro[isoquinoline-4,4′-piperidine]-2(3H)-yl)-4-oxobutanoic acid] | < 50 nM
O=C(O)CC1CC2(CCN(C(=O)NC3C4CC5CC3CC(F)(C5)C4)CC2)c2c(Br)cccc21 (stereo not drawn) [Example 74] | < 50 nM
CN(C)CC1CC2(CCN(C(=O)OC3C4CC5CC(C4)CC3C5)CC2)c2c(Br)cccc21 (racemic) [Example 125, (±)-2-Adamantyl 7-bromo-3-((dimethylamino)methyl)-2,3-dihydro spiro[indene-1,4′-piperidine]-1′-carboxylate] | < 50 nM
O=C(O)CCS(=O)(=O)N1Cc2ccccc2C2(CCN(C(=O)NC3C4CC5CC(C4)CC3C5)CC2)C1 (stereo not drawn) [Example 108, 3-(1′-(2-Adamantylcarbamoyl)-1H-spiro[isoquinoline-4,4′-piperidine]-2(3H)-ylsulfonyl)propanoic acid] | < 50 nM
